System: 354836-022-R-J1-PDC multicell spheroid viability
Experiment: Anticancer human tumor 354836-022-R-J1-PDC patient-derived head and neck squamous cell carcinoma cell line growth inhibition [PI3K]
Conditions: for IC50: curve of first compound; for viability, T/C: stronger effect = lower value
Summary of the method: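 Targeted small molecules plus PI3K inhibitors, half-log dose series from Cmax (default top 10 microM), were applied to heterotypic spheroids of cancer cells with HUVEC and MSCs. Viability indicated growth inhibition.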

[1] = second compound 0.0316 µM, first compound 0.0316 µM
[2] = second compound 0.0316 µM, first compound 0.1 µM
[3] = second compound 0.0316 µM, first compound 0.316 µM
[4] = second compound 0.0316 µM, first compound 1 µM
[5] = second compound 0.0316 µM, first compound 3.16 µM
[6] = second compound 0.0316 µM, first compound 10 µM
[7] = second compound 0.1 µM, first compound 0.0316 µM
[8] = second compound 0.1 µM, first compound 0.1 µM
[9] = second compound 0.1 µM, first compound 0.316 µM
[10] = second compound 0.1 µM, first compound 1 µM
[11] = second compound 0.1 µM, first compound 3.16 µM
[12] = second compound 0.1 µM, first compound 10 µM
[13] = second compound 0.316 µM, first compound 0.0316 µM
[14] = second compound 0.316 µM, first compound 0.1 µM
[15] = second compound 0.316 µM, first compound 0.316 µM
[16] = second compound 0.316 µM, first compound 1 µM
[17] = second compound 0.316 µM, first compound 3.16 µM
[18] = second compound 0.316 µM, first compound 10 µM
[19] = second compound 1 µM, first compound 0.0316 µM
[20] = second compound 1 µM, first compound 0.1 µM
[21] = second compound 1 µM, first compound 0.316 µM
[22] = second compound 1 µM, first compound 1 µM
[23] = second compound 1 µM, first compound 3.16 µM
[24] = second compound 1 µM, first compound 10 µM
[25] = second compound 3.16 µM, first compound 0.0316 µM
[26] = second compound 3.16 µM, first compound 0.1 µM
[27] = second compound 3.16 µM, first compound 0.316 µM
[28] = second compound 3.16 µM, first compound 1 µM
[29] = second compound 3.16 µM, first compound 3.16 µM
[30] = second compound 3.16 µM, first compound 10 µM
[31] = second compound 10 µM, first compound 0.0316 µM
[32] = second compound 10 µM, first compound 0.1 µM
[33] = second compound 10 µM, first compound 0.316 µM
[34] = second compound 10 µM, first compound 1 µM
[35] = second compound 10 µM, first compound 3.16 µM
[36] = second compound 10 µM, first compound 10 µM
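Further: spheroids exposed to agents for seven days before the viability read.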

CC(Cn1ccc(-c2ccc(C#N)c(Cl)c2)n1)NC(=O)c1cc(C(C)O)[nH]n1 (centres undefined) + CC(Nc1ncnc2nc[nH]c12)c1cc2cccc(Cl)c2c(=O)n1-c1ccccc1
IC50 (second compound 0.0316 µM): > 10 µM | IC50 (second compound 0.1 µM): > 10 µM | IC50 (second compound 0.316 µM): > 10 µM | IC50 (second compound 1 µM): > 10 µM | IC50 (second compound 3.16 µM): > 10 µM | IC50 (second compound 10 µM): > 10 µM | viability, T/C [1]: 99.3% | viability, T/C [2]: 91.8% | viability, T/C [3]: 96.6% | viability, T/C [4]: 112% | viability, T/C [5]: 97.7% | viability, T/C [6]: 84.4% | viability, T/C [7]: 87.8% | viability, T/C [8]: 102% | viability, T/C [9]: 89.6% | viability, T/C [10]: 104% | viability, T/C [11]: 85% | viability, T/C [12]: 93.3% | viability, T/C [13]: 91.2% | viability, T/C [14]: 90.6% | viability, T/C [15]: 97.6% | viability, T/C [16]: 87.9% | viability, T/C [17]: 101% | viability, T/C [18]: 89.1% | viability, T/C [19]: 106% | viability, T/C [20]: 91.4% | viability, T/C [21]: 93.1% | viability, T/C [22]: 108% | viability, T/C [23]: 83.5% | viability, T/C [24]: 78.8% | viability, T/C [25]: 113% | viability, T/C [26]: 96.8% | viability, T/C [27]: 95% | viability, T/C [28]: 97.2% | viability, T/C [29]: 90.7% | viability, T/C [30]: 83.7% | viability, T/C [31]: 96.5% | viability, T/C [32]: 93.2% | viability, T/C [33]: 83.8% | viability, T/C [34]: 96.9% | viability, T/C [35]: 95.2% | viability, T/C [36]: 75.7%

CC1(C)CCC(Nc2ncc(C(F)(F)F)c(-c3c[nH]c4c(P(C)(C)=O)c(C#N)ccc34)n2)CN1 (centres undefined) + CC(Nc1ncnc2nc[nH]c12)c1cc2cccc(Cl)c2c(=O)n1-c1ccccc1
IC50 (second compound 0.0316 µM): < 0.0316 µM | IC50 (second compound 0.1 µM): < 0.0316 µM | IC50 (second compound 0.316 µM): < 0.0316 µM | IC50 (second compound 1 µM): < 0.0316 µM | IC50 (second compound 3.16 µM): < 0.0316 µM | IC50 (second compound 10 µM): < 0.0316 µM | viability, T/C [1]: 13.4% | viability, T/C [2]: 10.9% | viability, T/C [3]: 15.2% | viability, T/C [4]: 12.4% | viability, T/C [5]: 13.8% | viability, T/C [6]: 1.65% | viability, T/C [7]: 12.6% | viability, T/C [8]: 13.2% | viability, T/C [9]: 15.7% | viability, T/C [10]: 16% | viability, T/C [11]: 16.1% | viability, T/C [12]: 2.44% | viability, T/C [13]: 11.3% | viability, T/C [14]: 13.9% | viability, T/C [15]: 12.4% | viability, T/C [16]: 14.8% | viability, T/C [17]: 14% | viability, T/C [18]: 2.31% | viability, T/C [19]: 12.3% | viability, T/C [20]: 13.2% | viability, T/C [21]: 14% | viability, T/C [22]: 14.3% | viability, T/C [23]: 16.8% | viability, T/C [24]: 1.85% | viability, T/C [25]: 10.7% | viability, T/C [26]: 13.8% | viability, T/C [27]: 13.7% | viability, T/C [28]: 15% | viability, T/C [29]: 16% | viability, T/C [30]: 1.2% | viability, T/C [31]: 17% | viability, T/C [32]: 16.9% | viability, T/C [33]: 14.9% | viability, T/C [34]: 21.3% | viability, T/C [35]: 16.8% | viability, T/C [36]: 0.91%
